Measured values: paper PMC8911752, “The Synthesis and Initial Evaluation of MerTK Targeted PET Agents” (Molecules, 2022)

Tests used:
Assay type in all cases: biochemical
Conditions in all cases: ATP at Km, mean of two or more independent assays
Axl = molecular target: T1, Axl (Homo sapiens, UniProt P30530); assay: Microcapillary electrophoresis (MCE) kinase assay, Axl
T1 sequence (P30530 26-894): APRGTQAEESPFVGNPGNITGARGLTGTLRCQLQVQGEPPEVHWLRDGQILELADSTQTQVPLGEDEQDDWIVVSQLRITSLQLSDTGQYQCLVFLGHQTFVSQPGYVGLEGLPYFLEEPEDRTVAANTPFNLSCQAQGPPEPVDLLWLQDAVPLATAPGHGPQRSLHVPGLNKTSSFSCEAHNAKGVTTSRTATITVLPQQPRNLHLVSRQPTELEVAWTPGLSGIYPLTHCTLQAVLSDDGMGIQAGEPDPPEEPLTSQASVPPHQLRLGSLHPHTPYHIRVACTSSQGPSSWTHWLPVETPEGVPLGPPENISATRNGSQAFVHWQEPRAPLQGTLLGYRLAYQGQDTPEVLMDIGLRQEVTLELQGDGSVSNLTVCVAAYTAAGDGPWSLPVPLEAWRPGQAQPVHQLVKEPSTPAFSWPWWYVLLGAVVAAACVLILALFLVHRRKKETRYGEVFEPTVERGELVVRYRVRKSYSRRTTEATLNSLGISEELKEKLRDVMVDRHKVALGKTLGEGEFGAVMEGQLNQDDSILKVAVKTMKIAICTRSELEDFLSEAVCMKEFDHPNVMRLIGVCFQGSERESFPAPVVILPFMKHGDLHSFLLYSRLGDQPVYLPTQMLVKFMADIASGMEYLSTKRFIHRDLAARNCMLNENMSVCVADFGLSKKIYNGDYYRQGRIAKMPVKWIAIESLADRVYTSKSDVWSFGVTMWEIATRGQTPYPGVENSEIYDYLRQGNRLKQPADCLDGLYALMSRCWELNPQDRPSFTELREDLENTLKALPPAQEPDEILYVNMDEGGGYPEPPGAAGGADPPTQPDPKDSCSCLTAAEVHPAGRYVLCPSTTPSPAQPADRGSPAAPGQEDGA
Experimental: (§1) The inhibitory activities of standards towards MerTK, Axl, Tyro3 and Flt3 were determined in our in-house microcapillary electrophoresis (MCE) assays.
(§2) Microcapillary Electrophoresis (MCE) Assays were performed with literature method. […] All reactions were terminated by addition of 20 µL of 70 mM EDTA. After an 180 min incubation, phosphorylated and unphosphorylated substrate peptides (Table 2) were separated in buffer supplemented with 1 x CR-8 on a LabChip EZ Reader equipped with a 12-sipper chip. Data were analyzed using EZ Reader software.

Tyro3 = molecular target: T2, Tyro3 (Homo sapiens, UniProt Q06418); assay: Microcapillary electrophoresis (MCE) kinase assay, Tyro3
T2 sequence (Q06418 41-890): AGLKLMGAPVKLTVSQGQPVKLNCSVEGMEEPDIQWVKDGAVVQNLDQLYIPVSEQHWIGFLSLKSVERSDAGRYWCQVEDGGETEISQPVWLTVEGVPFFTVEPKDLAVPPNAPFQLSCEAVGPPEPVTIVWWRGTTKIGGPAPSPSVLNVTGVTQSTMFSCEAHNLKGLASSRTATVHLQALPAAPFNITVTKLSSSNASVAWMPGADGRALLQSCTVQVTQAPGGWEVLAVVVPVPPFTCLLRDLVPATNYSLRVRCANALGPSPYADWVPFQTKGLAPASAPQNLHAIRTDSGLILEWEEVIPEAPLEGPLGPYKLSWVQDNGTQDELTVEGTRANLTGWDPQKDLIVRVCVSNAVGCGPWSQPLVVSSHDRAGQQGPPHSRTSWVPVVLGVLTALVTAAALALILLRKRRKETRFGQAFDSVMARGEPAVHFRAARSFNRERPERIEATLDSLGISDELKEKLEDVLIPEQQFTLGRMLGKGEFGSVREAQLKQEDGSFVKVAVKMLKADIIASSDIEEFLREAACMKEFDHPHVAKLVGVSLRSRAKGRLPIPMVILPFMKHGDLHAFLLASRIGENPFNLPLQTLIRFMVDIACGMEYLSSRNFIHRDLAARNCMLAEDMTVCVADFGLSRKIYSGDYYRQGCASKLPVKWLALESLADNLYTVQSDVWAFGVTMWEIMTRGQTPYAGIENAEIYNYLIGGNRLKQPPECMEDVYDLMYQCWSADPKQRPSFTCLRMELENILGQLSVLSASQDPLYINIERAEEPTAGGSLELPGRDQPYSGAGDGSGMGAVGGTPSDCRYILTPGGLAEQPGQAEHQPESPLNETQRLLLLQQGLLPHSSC
Experimental: as §1, §2

Flt3 = molecular target: T3, Flt3 (Homo sapiens, UniProt P36888); assay: Microcapillary electrophoresis (MCE) kinase assay, Flt3
T3 sequence (P36888 27-993): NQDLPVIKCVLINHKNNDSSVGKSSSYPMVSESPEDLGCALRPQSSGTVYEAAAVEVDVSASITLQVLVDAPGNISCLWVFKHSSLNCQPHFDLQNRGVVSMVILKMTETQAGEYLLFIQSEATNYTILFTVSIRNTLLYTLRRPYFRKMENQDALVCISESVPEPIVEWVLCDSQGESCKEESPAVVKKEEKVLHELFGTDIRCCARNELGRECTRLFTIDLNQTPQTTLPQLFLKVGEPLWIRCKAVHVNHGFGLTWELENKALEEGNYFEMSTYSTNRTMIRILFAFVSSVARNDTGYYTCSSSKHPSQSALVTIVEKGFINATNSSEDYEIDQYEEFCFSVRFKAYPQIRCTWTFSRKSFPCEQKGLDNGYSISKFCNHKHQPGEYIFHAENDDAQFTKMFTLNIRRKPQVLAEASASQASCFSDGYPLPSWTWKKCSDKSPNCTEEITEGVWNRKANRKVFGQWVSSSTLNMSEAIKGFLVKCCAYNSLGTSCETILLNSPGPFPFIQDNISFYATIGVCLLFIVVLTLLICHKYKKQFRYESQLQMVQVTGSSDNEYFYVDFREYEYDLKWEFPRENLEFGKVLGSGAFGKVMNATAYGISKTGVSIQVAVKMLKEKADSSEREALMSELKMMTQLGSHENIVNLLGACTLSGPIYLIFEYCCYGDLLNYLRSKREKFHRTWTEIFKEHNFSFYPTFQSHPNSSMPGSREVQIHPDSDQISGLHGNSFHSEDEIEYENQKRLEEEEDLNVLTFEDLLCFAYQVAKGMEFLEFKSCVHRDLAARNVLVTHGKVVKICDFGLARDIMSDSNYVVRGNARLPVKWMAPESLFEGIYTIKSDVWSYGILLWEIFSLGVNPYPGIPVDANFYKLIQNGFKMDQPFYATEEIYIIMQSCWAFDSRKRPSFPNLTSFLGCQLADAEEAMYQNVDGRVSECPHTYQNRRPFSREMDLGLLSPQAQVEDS
Experimental: as §1, §2

| SMILES | IC50 (Axl) | IC50 (Tyro3) | IC50 (Flt3) |
| --- | --- | --- | --- |
| C[C@H](Nc1ncc2c(C3CCN(C)CC3)cn([C@H]3CC[C@H](O)CC3)c2n1)c1ccccc1 [MerTK-2] | 1.7 µM | 0.18 µM | > 30 µM |
| C[C@H](Nc1ncc2c(C3CCN(C(=S)Nc4ccc(CC5CN(CC(=O)O)CCN(CC(=O)O)CCN5CC(=O)O)cc4)CC3)cn([C@H]3CC[C@H](O)CC3)c2n1)c1ccccc1 (stereo partly drawn) [MerTK-4] | 4.1 µM | 0.18 µM | > 30 µM |
| CCC[C@H](C)Nc1ncc2c(C3CCN(CCF)CC3)cn([C@H]3CC[C@H](O)CC3)c2n1 [MerTK-5] | 1.1 µM | 0.19 µM | 1 µM |
| C[C@H](Nc1ncc2c(C3CCN(CCF)CC3)cn([C@H]3CC[C@H](O)CC3)c2n1)c1ccccc1 [MerTK-6] | 2.1 µM | 0.12 µM | 5.5 µM |
